# In publication PMC12051037 (Chemistry (Weinheim an der Bergstrasse, Germany), 2024):
# “Also recorded” adds a separate entry of the source.
# Assay: Stability of the aldehyde in solution
# Type: physicochemical
# Conditions: slowly converts into 1
substance,measurement,value
tumonolide aldehyde [compound 2],stability,not stable; also recorded: poor stability
